Measured values from US12590130B2, “Bipartite molecules and uses thereof in treating diseases associated with abnormal protein aggregates” (ACADEMIA SINICA, priority 2014, dated 2026).

What was measured:
[1] = Solubility of therapeutic peptides; type: physicochemical
Procedure: In this study, the rational design was tested for HD. Several bipartite therapeutic peptides containing 8 consecutive arginines (8R) attached to a stretch of consecutive glutamines (polyQ) were synthesized and their biological activity of decreasing the aggregation propensity of the mHtt protein was investigated. The length of the polyQ of these bipartite peptides was 5 (8R5Q), 10 (8R10Q), 15 (8R15Q) or 20 (8R20Q) (Table 2).

[2] = tested on: Neuro2a cells expressing 109QmHtt; assay: Retinoic acid-induced neurite outgrowth; type: cell-based, mouse; details: 109QmHtt cells; vs water or scrambled control
Procedure: FIG. 5. Therapeutic effect of 8R10Q and 8R15Q in 109QmHtt-expressing cells. Panel A: Cell viability assay by MTT in Neuro2a cells expressing 25QHtt (left) or 109QmHtt (right) treated with H2O2 at 50 μM and the indicated peptide. Panel B: Cell growth curve of Neuro2a cells expressing 25QHtt or 109QmHtt treated with indicated peptide. The cells in right subpanel were further treated with H2O2 at 12.5 μM 16 hours after transfection. 109QmHtt cells growth was slower than that of the 25QHtt cells. 8R10Q treatment rescued the slow growth of Neuro2a cells by 109QmHtt with or without H2O2. Panel C: Micrographs of the phase contrast and fluorescent images of retinoic acid-differentiated Neu2a cells expressing GFP-25QHtt or GFP-109QmHtt (GFP) treated with the indicated peptide. Note the neurites of the differentiated cells. Panel D: Quantitation of the percentage of differentiated cells with neurites. Fewer 109QmHtt-expressing cells had neurites vs. 25QHtt-expressing cells. […] The experiments were conducted in triplicate and repeated twice. Statistical analysis was performed with one way ANOVA, *p<0.05; **p<0.01; ***p<0.001, ns: not significant.
Retinoic acid (RA) induced the differentiation of Neuro2a cells with neurite outgrowth. 109QmHtt decreased the number of cells bearing RA-induced neurites relative to 25QHtt (FIG. 5, panels C and D).

[3] = tested on: R6/2 transgenic mice; assay: Neuropathology of R6/2 transgenic mice; type: in vivo, mouse
Source text: FIG. 7. Amelioration of neuronal damage of 13 week-old R6/2 mice by 8R10Q peptide. Panel A: Micrographs of the Nissl stain sections of cortex (CTX) of WT and R6/2 mice. The cortex and its thickness are highlighted by the dashed lines and red solid lines, respectively. Panel B: Quantitation of the cortical thickness. Note the decrease in cortical thickness in R6/2 mice which was reversed by the 8R10Q. […]: Micrographs (panel D) and (panel F) show the corresponding quantitation of the Nissl stained sections of the cortex and striatum, respectively. Note the decrease in the number of neurons, which was reversed by 8R10Q. N=3/group, each bar represents the average of 5 sections. Statistical analysis performed with one way ANOVA, *p<0.05; ***p<0.001, ns: not significant.
FIG. 8. Decrease in mHtt aggregates and glial pathology in 13-week-old R6/2 mice by 8R10Q peptide treatment. Panel A: Micrographs and corresponding quantitation (panel B) of the immunostained sections of cortex (CTX) and striatum with EM48 antibody. The brown dots show the mHtt aggregates. The left subpanels of panel B show the quantitative data with respect to the total area occupied by the aggregates, and the right, the intensity of individual aggregates. Panel C: Photographs of the immunofluorescent-stained sections of the cortex of R6/2 mice with anti-GFAP antibody. […] Panel E: Micrographs of the immunostained sections of the cortex (CTX) and striatum of WT and R6/2 mice with anti-Iba1 antibody. […] N=3/group. Each bar represented an average of 15 sections/mouse group. Statistics were performed with Student's t test for panels B and D, but with one way ANOVA, *p<0.05; **p<0.01; ***p<0.001, ns: not significant.
To correlate the beneficial effect with the aggregates of mHtt, immunohistochemistry was performed to calculate the areas occupied by the aggregates per unit area (150 μm^2). The method was selected because the frequent clustering of the aggregates into conglomerates rendered an accurate count of the aggregate number very difficult.

[4] = tested on: 109QmHtt aggregates; assay: TIRF microscopy of mHtt aggregates in Neuro2a cells; type: cell-based; details: Neuro2a cells expressing 109QmHtt
Procedure: FIG. 3. Diagrams showing the co-localization of tested bipartite peptides with the 109QmHtt aggregates. Panel A: Structure of TAMRA-labeled 8R10Q used in this study. Panel B: Epifluorescence micrographs of Neuro2a cells expressing 109QmHtt treated with TAMRA-8R10Q (8R10Q) at various time points. Note the co-localization of 8R10Q and 109QmHttGFP aggregates (GFP) from 8-24 hours (arrows). Scale bar: 10 μm. Panel C: TIRF micrographs of the Neuro2a expressing 109QmHtt treated with water or peptides as indicated at various time points. Note the decrease in aggregate size in 8R10Q and 8R15Q-treated cells. Panel D: Quantitation of the size of individual aggregates in Neuro2a at 8 hours (left) and 24 hours (right) after peptide treatment. […] Panel E: Quantitation of the number of aggregates in 20 Neuro2a cells at 12 hours (left) and 24 hours (right) after peptide treatment. Both the 8R10Q and 8R15Q increased the number of aggregates. Statistics performed with one way ANOVA. **p<0.01; ***p<0.001.
To probe into the details of the effect of peptide on the mHtt aggregates, the parameters of the mHtt aggregates were visualized and measured using the Total Internal Reflection Fluorescence (TIRF) microscopy. […] The number of aggregates in 20 cells was also calculated. 8R10Q and 8R15Q increased the number of the aggregates by 4-5 fold (FIG. 3, panel E).

In the case of “H-RRRRRRRRWDQQQQQQQQQQ-NH2 [Peptide 8R10Q, NH2-(R)8-W-D-(Q)10-CONH2]”, the “Solubility (DMEM/10% FBS)” value ([1]; DMEM/10% FBS) is reported as “Soluble”, the “solubility in water or culture medium” value ([1]; water or culture medium) is reported as “highly soluble” and the RA-induced neurite outgrowth [2] is reported as “significantly reversed the defect in neurite outgrowth”. For the same substance, the cortical thickness ([3]; 13 week-old R6/2 mice) was “prevented cortical thinning”, the “loss of neurons in cortex and striatum” value ([3]; R6/2 mice, intranasal) was “significantly prevented” and the “intensity of mHtt aggregates” value ([3]; cortex and striatum) was “significantly decreased”. For the same substance, the tau signals ([3]; cortex and striatum of R6/2 mice) was “significantly enhanced”, the “decrease in areas of mHtt aggregates” value ([3]; cortex and striatum, vs PBS, EM48 immunohistochemistry) was about 60% and the “numbers of GFAP-positive astrocytes” value ([3]; cortex of R6/2 mice) was “significant decrease”. For the same substance, the “numbers of Iba-1-positive microglia” value ([3]; cortex of R6/2 mice) was “significant decrease” and the “average size of the aggregates” value [4] was 0.3 μm^2.
